The data set is described as follows: LC-MS analysis of rice plants fed with the mimics. The class given is in vivo. Particulars: data not shown.

From US20220400669A1, “COMPOUNDS AND METHODS FOR PROMOTING PLANT GROWTH” (King Abdullah University of Science and Technology, priority 2019, published 2022) come the findings set out here.

Consider `COc1ccc(Oc2cccc(/C=C/C(C)=O)c2)cc1` [MZ3, (E)-4-(3-(4-methoxyphenoxy)phenyl)but-3-en-2-one], for which the “presence in shoots of rice plants fed through roots” value is “detected”.
